Experiments:
[1] = test system: horse with chronic laminitis; experiment: Horse with chronic laminitis, Ketoprofen in the water, acceptance and intake; type: in vivo; settings: 1 mg per pound in the water for 2 weeks
swine influenza = type: in vivo, finishing hogs
[2] = test system: PRRS (Porcine Respiratory and Reproductive Syndrome) Virus; experiment: PRRS virus outbreak in swine nursery, Ketoprofen orally; type: in vivo; settings: orally for 7 days, along with the same other therapy as controls
Description: A swine client with a 10,000 head nursery was experiencing severe mortality due to a PRRS (Porcine Respiratory and Reproductive Syndrome) Virus outbreak. They had used antibiotics with only partial success and were seeing mortalities as high as 30 percent in the group. […] We also saw less chronic pigs in the treatment group 3% versus 15% in the controls.

platelet cyclo-oxygenase = settings: horse, cited from earlier work
[3] = 1 mg/pound for 3 days orally through the drinking water

Row | SMILES | pain compared with previous treatment (phenylbutazone) [1] | morbidity at the time of the outbreak (swine influenza; [3]) [%] | mortality (swine influenza; [3]) [%] | average time to market, less than the control group (swine influenza; 1 mg/pound for 3 days orally through the drinking water, 150 pound finishing hogs marketed at 260 pounds) [days] | follow-up mass medication with antibiotics (swine influenza; two weeks after the outbreak) | chronic pigs [2] [%] | mortality [2] [%] | reductions in exudates eicosanoid concentrations (platelet cyclo-oxygenase; carrageenin tissue-cage exudate) | duration of inhibition of platelet cyclo-oxygenase (platelet cyclo-oxygenase; oral) [h]
1 | CC(C(=O)O)c1cccc(C(=O)c2ccccc2)c1 (stereo not drawn) [Ketoprofen] | less painful | 10 | 2.1 | 9 | did not require any mass medication with antibiotics | 3 | 7 |  | 
2 | CN=C1CCN(c2cccc(C(F)(F)F)c2)N1 [BW540C] |  |  |  |  |  |  |  | less pronounced | 24

From patent US6995190B2 (Veterinary Solutions, priority 2001, dated 2006)
